Data taken from patent US20100041597A1, “PEPTIDES TARGETED TO PROTEIN KINASE C ISOFORMS AND USES THEREOF” (priority 2005, published 2010).

Tests used:
PKC-α = assay: Binding of PREs to PKC-α in V5E-transfected IMR-32 cells and effect on cell morphology; assay type: cell-based, human; conditions: V5E-transfected IMR-32 cells; for Relative Fluorescence Intensity (mean): PRE by pinocytic endocytosis, transfected + reagent control 113
Text: Neuroblastoma cells from the IMR-32 cell line were stably transfected with a vector containing the V5E sequence of PKC-α as outlined above in Example 13. The V5E sequence is part of the antigenic amino acid sequence that is used to raise the commercially available anti-PKC-α isoform-specific antibody.
The peptides PRE 1, 2, 3, 4, 5, 6, 7, 8, 9, 10, 11, 12 and 13 (see Table 3) were incorporated into the transfected IMR-32 cells via pinocytic endocytosis (Molecular Probes) according to the supplier's recommendations. Following fixation and permeabilization, PKC-α was detected using an Alexa fluor secondary antibody (as described above in Example 8).
Results: The expressed V5E fragment adds to the decoration of PKC-α in the transfected IMR-32 cells since it is recognized by the same antibody (compare FIGS. 20A and 20B).

PKC-ε = molecular target: T1, PKC-ε (Homo sapiens, UniProt Q02156); assay: Competitive binding assay using cell extracts (Western blot); parameters: cytoplasmic extracts from different cell lines expressing appropriate PKC isoforms; endogenous in cells; host or cells: CCD16Lu, LnCAP, Du145, MDAMB231, LS180; key: —: no detectable affinity; Low to very low affinity at 10X or 20X or both PRE concentrations in at least one cell line in the cell extract assay; Low affinity in purified isoform assay.; Moderate affinity at 10X or 20X or both PRE concentrations in at least one cell line in the cell extract assay.; High affinity at 10X or 20X or both PRE concentrations in at least one cell line in the cell extract assay; High affinity in purified isoform assay; conditions: Cell extract; PRE at 10X, 20X antibody concentration; Table 20
T1 sequence (Q02156 1-737): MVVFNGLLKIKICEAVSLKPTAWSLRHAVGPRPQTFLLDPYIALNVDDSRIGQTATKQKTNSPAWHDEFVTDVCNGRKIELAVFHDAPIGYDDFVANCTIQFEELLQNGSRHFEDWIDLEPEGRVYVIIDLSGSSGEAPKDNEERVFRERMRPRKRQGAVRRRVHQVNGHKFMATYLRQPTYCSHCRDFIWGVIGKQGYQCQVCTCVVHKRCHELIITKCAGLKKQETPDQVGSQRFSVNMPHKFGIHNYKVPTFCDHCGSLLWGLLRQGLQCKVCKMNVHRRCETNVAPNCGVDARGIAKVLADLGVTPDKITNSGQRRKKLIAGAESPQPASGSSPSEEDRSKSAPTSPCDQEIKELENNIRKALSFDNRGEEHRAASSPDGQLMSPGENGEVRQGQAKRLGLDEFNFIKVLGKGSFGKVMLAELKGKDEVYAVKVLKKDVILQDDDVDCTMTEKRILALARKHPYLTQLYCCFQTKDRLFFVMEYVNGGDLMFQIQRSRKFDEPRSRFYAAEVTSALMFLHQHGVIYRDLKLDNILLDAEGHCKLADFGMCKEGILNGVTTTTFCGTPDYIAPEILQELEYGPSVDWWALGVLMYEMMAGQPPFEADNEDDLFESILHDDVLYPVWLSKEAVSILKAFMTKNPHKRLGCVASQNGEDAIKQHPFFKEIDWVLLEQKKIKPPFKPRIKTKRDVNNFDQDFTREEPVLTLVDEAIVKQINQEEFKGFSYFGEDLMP
Experimental: (§1) Binding efficiency and specificity of the peptides PRE 2, 3, 4, 5, 6, 7, 8, 9, 10, 11, 12 and 13 (see Table 3) was also tested using cytoplasmic extracts from different cell lines expressing appropriate PKC isoforms as described for Example 1. Briefly, the protein cytoplasmic extracts were separated by electrophoresis and transferred onto nitrocellulose membranes by standard Western blotting procedures. The bands on the Western blots were detected with matching primary antibodies and alkaline phosphatase conjugated secondary antibody. The bands were then scanned and the relative density measurements obtained.
(§2) This procedure to assess the binding characteristics of the PREs is based on competition binding of the PRE with the primary anti-isoform PKC specific antibodies. The lower the measured band density, the greater the binding of the PRE to the PKC isoform. The PREs were added at 10 and 20 times (10×, 20×) the primary antibody concentration, according to classical competition between antigenic peptide and primary antibody. The following cell lines (obtained from the ATCC) were used: H661—NCI human lung carcinoma NSCLC; MDAMB231—human highly invasive breast cancer cell line from pleural effusion; LS180—human colon adenocarcinoma; LnCAP—human prostate adenocarcinoma; CCD16Lu—human lung fibroblasts; Du145—human prostate carcinoma brain metastasis, and T24—human bladder carcinoma.
(§3) In these cases, the 20× band density figures relative to control and 10× values were reliable.

PKC-ζ = molecular target: T2, PKC-ζ (Homo sapiens, UniProt Q05513); assay: as above; parameters: cytoplasmic extracts from different cell lines expressing appropriate PKC isoforms; endogenous in cells; host or cells: MDAMB231, LnCAP, Du145, H661, CCD16Lu (human, from ATCC); key: —: no detectable affinity; Low to very low affinity at 10X or 20X or both PRE concentrations in at least one cell line in the cell extract assay; Low affinity in purified isoform assay.; Moderate affinity at 10X or 20X or both PRE concentrations in at least one cell line in the cell extract assay.; High affinity at 10X or 20X or both PRE concentrations in at least one cell line in the cell extract assay; High affinity in purified isoform assay; conditions: Cell extract; PRE at 10X, 20X antibody concentration; Table 20
T2 sequence (Q05513 1-592): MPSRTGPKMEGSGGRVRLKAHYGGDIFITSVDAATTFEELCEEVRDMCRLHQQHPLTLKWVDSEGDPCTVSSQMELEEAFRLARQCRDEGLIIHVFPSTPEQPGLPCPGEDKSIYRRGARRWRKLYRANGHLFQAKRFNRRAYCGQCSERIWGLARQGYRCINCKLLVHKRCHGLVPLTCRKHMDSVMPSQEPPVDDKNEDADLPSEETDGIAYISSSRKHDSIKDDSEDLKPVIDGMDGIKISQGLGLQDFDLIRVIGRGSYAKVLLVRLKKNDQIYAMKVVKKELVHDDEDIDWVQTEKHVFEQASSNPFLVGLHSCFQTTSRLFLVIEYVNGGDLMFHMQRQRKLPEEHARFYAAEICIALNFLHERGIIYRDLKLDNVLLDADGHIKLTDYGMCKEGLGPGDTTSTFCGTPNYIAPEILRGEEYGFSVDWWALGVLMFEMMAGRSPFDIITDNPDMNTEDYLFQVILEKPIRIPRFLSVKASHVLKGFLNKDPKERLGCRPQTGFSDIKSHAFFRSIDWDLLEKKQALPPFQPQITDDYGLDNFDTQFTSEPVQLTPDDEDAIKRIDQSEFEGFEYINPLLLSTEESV
Experimental: as §1, §2, §3

Substance | PKC-α label (PKC-α) | Relative Fluorescence Intensity (mean) (PKC-α) | Affinity for PKC isoform ε (PKC-ε) | Affinity for PKC isoform ζ (PKC-ζ) | effect on cell morphology (PKC-α) | effect on karyokinesis (PKC-α)
Ac-AKGIQEVKGGDAQNLIGISI-NH2 [PRE 3] | more intense perinuclear decoration | 83 | L | — |  | 
Ac-AKGIQEVKGGKDAQNLIGISI-NH2 [PRE 5] |  | 124 | L | L/H | poor morphology | aborted karyokinesis
Ac-ISIGILNQADK-NH2 [PRE 10] |  |  | M/L | M/L |  | aborted karyokinesis
Ac-ISIGILQNADK-NH2 [PRE 7] |  |  | — | — |  | 
Ac-KDANQLIGISI-NH2 [PRE 6] |  |  | M | — |  | aborted karyokinesis
Ac-KDAQNLI-NH2 [PRE 12] |  |  | — | M/H | little effect on the cell morphology | 
Ac-KDAQNLIGISI-NH2 [PRE 4, Ac-KDAQNLIGISI-NH2] | decreased label | 79 | H/L | — | morphological changes with enlarged cells | 
Ac-RDAQNLI-NH2 [PRE 13] |  | 116 | — | — | little effect on the cell morphology | 
Ac-RDAQNLIGISI-NH2 [PRE 11] |  |  | — | — | apoptotis | 
Ac-isigilgnadk-NH2 [PRE 9] | strong perinuclear label | 121 | M/L | M/L |  | 
ILEDKGGDAQNLIGISI [PRE 8] |  |  | L |  |  | 
RRKKGGKDFVVKR [PRE 1] |  |  |  | L | many dividing cells and abnormal morphology | 
